Columns and labels:
[1] = DPPH radical scavenging activity test; type: biochemical; conditions: positive control at 0.01%
Procedure: In order to confirm the anti-oxidation efficacy of ceramide and bioactive material-containing nanoparticle capsules, a DPPH radical scavenging activity test was conducted. The DPPH radical scavenging activity was measured by the reducing power of the sample relative to the DPPH radical. A 0.4 mM solution was prepared by dissolving DPPH (1,1-Diphenyl-2-picrylhydrazyl) reagent in ethanol. Then 100 μL of the solution of each sample corresponding to Example 1, Comparative Examples 1, and 2, or positive control BHT (Butylated hydroxyl toluene or 2,6-Di-tert-butyl-p-cresol) was dissolved in ethanol, was added to 100 μL of the 0.4 mM DPPH solution in a 96 well plate and mixed. At this time, ethanol was treated as a negative control, and after mixing, the mixture reacted at 37° C. for 30 minutes. Absorbance was measured at 517 nm using ELISA reader, and the DPPH radical scavenging ability (%) of the sample or BHT as a positive control was calculated using the following formula.
DPPH radical scavenging ability (%)={1−(absorbance of positive control or sample/absorbance of control)}×100

[2] = test system: AQP3; assay: Moisturizing efficacy: AQP3 mRNA expression by qRT-PCR in UVB-irradiated HDFa cells; type: cell-based, Human; conditions: UVB 15 mJ/cm^2, positive control at 0.01%
Procedure: In order to confirm the moisturizing efficacy of ceramide and bioactive substance-containing nanoparticle capsule, the effect on AQP3 expression was evaluated. After inoculating Human dermal fibroblast (HDFa) cell lines, they were cultured at 37° C. for 24 hours under 5% CO2 in Fibroblast Basal Medium (Medium 106) containing 100 IU/mL penicillin and 100 μg/mL streptomycin. The medium of each well was removed and replaced with fresh serum-free medium. Each well was subjected to pretreatment for 4 hours by administering the samples corresponding to Example 1 and Comparative Examples 1 and 2 at each concentration. 15 mJ/cm^2 UVB was irradiated to each well plate by a UVB irradiation device (vilber loumet, France). The sample was treated with the diluted serum-free medium, and then further cultured for 24 hours. At this time, a negative control was treated with PBS, and a positive control was treated with Hyaluronic acid at 0.01%. After the cell culture was completed, the cells were lysed using Ribo Ex™ Total RNA Isolation Solution (GeneAll Biotechnology, Korea) and scraper, and then 0.2 mL chloroform (Sigma-Aldrich, USA) was added thereto to perform centrifugation (12,000 rpm, 4° C., 30 minutes). […]

Row | Compound | DPPH radical scavenging ability (%) [1] [%] | Relative AQP3 expression (% of control) [2]
1 | Cc1cc(C(C)(C)C)c(O)c(C(C)(C)C)c1 [BHT, 2,6-Di-tert-butyl-p-cresol] | 62.08 | 
2 | Hyaluronic acid |  | 149.52 % of control

Source: US20250114286A1, “METHOD FOR STABILIZING CERAMIDE AND COSMETIC COMPOSITION COMPRISING STABILIZED CERAMIDE” (COSMECCA KOREA Co., Ltd., priority 2023, published 2025)
